No end group written: not given here.
Key:
TLR4 [1] = test: LPS-induced cytokine mRNA expression in mouse macrophages (real-time RT-PCR); assay type: cell-based
Protocol: (§1) C57BL/6J mice were obtained from The Jackson Laboratory (Bar Harbor, Me.). Primary peritoneal macrophages were obtained by peritoneal lavage 4 days after intraperitoneal injection (3 ml) of sterile 3% thioglycolate broth. Washed cells were resuspended in RPMI 1640 which contained 2% FBS, 1% penicillin:streptomycin and 2 mM L-glutamine. After plating, cells were incubated overnight at 37° C. and then washed with PBS to remove non-adherent cells. Cells were exposed to peptides 30 min before stimulation with a TLR agonist.
Total cellular RNA was isolated using Tripure from Roche (San Francisco, Calif.) following manufacture's protocol. RNA was then reverse transcribed using AMV Reverse Transcriptase from Promega (Madison, Wis.) with poly-T priming as per manufacturer's directions. cDNA was then quantified by real-time PCR using Applied Biosystems Fast SYBR Green PCR Master Mix and an ABI Prism 7500HT cycler. Primers used for detection: hypoxanthine phosphoribosyltransferase (HPRT) (forward: […] (SEQ ID NO:51), reverse: […] (SEQ ID NO:52)), TNFα (forward: […] (SEQ ID NO:53), reverse: […] (SEQ ID NO:54)), IL-1β (forward: […] (SEQ ID NO:55), reverse: […] (SEQ ID NO:56)), IFNβ (forward: […] (SEQ ID NO:57), reverse: CTCGGACCACCATCCAGG (SEQ ID NO:58)) and RANTES (forward: […] (SEQ ID NO:59), reverse: […] (SEQ ID NO:60)). The primers were designed using Primer Express 2.0 (Applied Biosystems). Using HPRT as reference, the ΔCt method was used to calculate relative gene expression. One-way ANOVA was preformed, as well as Dunnett's multiple comparison post hoc test with a p≦0.01 selected as the level of significance.
Total RNA was isolated with Nucleospin RNA II kits (Macherey-Nagel, Bethlehem, Pa.), followed by DNase digestion. cDNA was synthesized from 1 μg RNA using Goscript transcriptase (Promega), and subjected to real-time PCR with gene-specific primers for HPRT, TNF-α, IL-1β, IFNβ, and RANTES on H7900 ABI system using Fast SYBR Green master mix (Applied Biosystems, Foster City, Calif.).
To evaluate peptide-inhibitory activities, we first measured LPS-induced cytokine mRNA expression. […] […] Decoy peptide TM4 is derived from the BB loop of TRAM TIR; we previously identified this peptide as an effective TLR4 inhibitor (19).

TLR4 [2] = test: LPS-induced MAPK (ERK, JNK, p38) activation in mouse macrophages (Western analysis); assay type: cell-based
Protocol: Cellular protein extracts were isolated by addition of 240 μL per well cold lysate buffer (20 mM Tris, 50 mM NaCl, 1.5 mM MgCl2, 2 mM EDTA, 10 mM NaF, 2 Mm DTT, 1 mM Na3VO4, 1% Triton). Cells were incubated with lysis solution for 30 min on agitator at 4° C. Lysate was then collected and centrifuged at 14,000 g for 10 minutes at 4° C. After quantification using BioRad protein assay, protein samples were added to Laemmli buffer and then boiled for 10 min. Samples were then resolved by SDS-10% PAGE in Tris/glycine/SDS buffer (25 mM Tris, 250 mM glycine, 0.1% SDS), and transferred onto Immobilon P transfer membranes (Millipore, Bedford, Mass.) (100 V, 1.5 h, 4° C.). Membranes were blocked for 1 h in TBS-T (20 mM Tris-HCl, 150 mM NaCl, 0.1% Tween 20) containing 5% nonfat milk, then probed for overnight at 4° C. with the respective antibodies (Abs) (dilution 1:1000 in TBS-T with 2% BSA). After washing in TBS-T, membranes were incubated with secondary HRP-conjugated, donkey anti-rabbit IgG (1:10,000 dilution in TBS-T with 5% nonfat milk) for 1 h at room temperature. Membranes washed five times in TBS-T before development with ECL reagents (GE Healthcare) according to manufacturer's directions.
HEK293T cells were transfected with indicated plasmids using Superfect Transfection Reagent (Qiagen). Twenty-four hours posttransfection, the cells were lysed using the buffer containing 20 mM HEPES (pH 7.4), 150 mM NaCl, 10 mM NaF, 2 mM Na3VO4, 1 mM EDTA, 1 mM EGTA, 0.5% Triton X-100, 0.1 M DTT, 1 mM PMSF, and protease inhibitor mixture (Roche, Indianapolis, Ind.). Rabbit Ab against phospho-ERK, phospho-JNK, MyD88 (D80F5), STAT1-Y701, total STAT1, and GAPDH were purchased from Cell Signaling Technology (Beverly, Mass.). Rabbit anti-phospho-p38 Ab was purchased from Promega (Madison, Wis.). Goat anti-TLR4 (M−16), rabbit anti-TLR4 (H-80), anti-HA-HRP (F-7), and rabbit anti-b-actin Ab were purchased from Santa Cruz Biotechnology. Mouse anti-Flag M2 and rabbit anti-HA Ab were from Sigma-Aldrich. GFP Ab (A1122) was from Invitrogen. Protein was quantified using Bio-Rad protein quantification kit. Equal amount of protein was loaded and analyzed by 10% SDS-PAGE and immunoblotting. The cell extracts containing equal amount of protein were incubated with 1 μg Ab for 2 h, followed by 4-h incubation with 25 μl protein G agarose beads (Roche); the beads were then washed four times with lysis buffer, boiled in […] sample loading buffer, and analyzed by immunoblotting.
We next examined whether TRAM peptides inhibit the TLR4-mediated p38, ERK, and JNK MAPK activation. Murine macrophages pretreated with peptides for 30 min were challenged with LPS. Cell lysates were collected 30 min post-stimulation and analyzed for MAPK phosphorylation by Western analysis. Consistent with peptide effects on steady-state mRNA, both TM4 and TM6 inhibited activation of all three MAPKs (FIG. 5C). The inhibition of MAPKs by TM4 or TM6 was long lasting; it persisted for at least 1 h after LPS stimulation (data not shown). To characterize further the effects of TRAM peptides on MAPKs, murine macrophages were treated with TRAM peptides, but not challenged by LPS.

TLR4 [3] = conditions: from references (1, 22); cited from earlier work
TLR4 [4] = test: Inhibition of TLR4 signaling in thioglycollate-elicited mouse macrophages (effective concentration, overall inhibitory activity); assay type: cell-based; conditions: TLR4 pathway; thioglycollate-elicited mouse macrophages
Protocol: as §1
TIRAP/Mal functions to facilitate MyD88 recruitment to the activated TLR4 and TLR2, presumably through a simultaneous interaction with receptor and MyD88 TIR domains. Therefore, multiple TIR:TIR interaction sites are expected in TIRAP TIR. The decoy peptide approach was used to obtain leads on the functional protein-protein interfaces within TIRAP/Mal, a TLR adapter protein. To this end, eleven TIRAP TIR-derived decoy peptides were designed to be structurally homologous to the TLR4 TIR-derived decoy peptides used previously (1), so that each peptide represents a non-fragmented patch of the TIRAP TIR surface, with the entire domain encompassed by the set of peptides. The TIRAP TIR-derived decoy peptides were synthesized in tandem with the cell-permeating sequence of Antennapedia homeodomain (21) and each peptide was tested for the ability to inhibit TLR4 and TLR2 signaling in primary mouse macrophages. Peptide sequences and the structural regions they represent are shown in reference (30).
C57BL/6J mice were obtained from The Jackson Laboratory (BarHarbor, Me.). Harvesting, culturing, and stimulation of peritoneal macrophages were described in previous publications (1, 18, 19). Escherichia coli K235 LPS (34) was used at the final concentration of 100 ng/ml. The 2,3-bis(palmitoyloxy)-(2-RS)-propyl-N-palmitoyl-(R)-Cys-Ser-Lys4-OH (P3C) and S[2,3-bis(palmitoyloxy)-(2-RS)-propyl]-[R]-Cys-Ser-Lys4-OH (P2C) (EMC Microcollections, Tubingen, Germany) were used at 500 and 50 ng/ml, respectively. Oligonucleotide (ODN) 1668 and low m.w. polyinosinic-polycytidylic acid [poly(I:C)] in complex with LyoVec were obtained from InvivoGen; these agonists were used at 2.5 μM and 400 ng/ml, respectively.

TLR4 [5] = test: LPS-induced STAT1-Y701 phosphorylation in macrophages (immunoblotting); assay type: cell-based, mouse; conditions: 2 h after LPS
TLR4 [6] = test: LPS-induced cytokine secretion by mouse macrophages (ELISA/multiplex); assay type: cell-based; conditions: 5 or 20 μM peptide; LPS 100 ng/ml; supernatants 24 h
Protocol: Cytokine secretion was measured in supernatant samples collected at 6 or 24 h time points and stored at −80° C. Samples were analyzed by a multiplex assay at the University of Maryland Baltimore Cytokine Core Facility using a Luminex 100 reader and Softmax Pro software, or by ELISA kits for mouse IL-6 or TNF-α from BioLegend (San Diego, Calif.) and LT-4000 microplate reader.
A total of 2×10^6 cells was plated in 12-well plates and treated with peptides for 30 min prior to LPS stimulation. TNF-α, IL-1β, IL-6, and IFN-β were measured using ELISA kits from BioLegend (San Diego, Calif.), as recommended by the manufacturer.

Row | Sequence | LPS-induced cytokine mRNA induction (TLR4 [1]; peritoneal macrophages (FIG. 14A)) | LPS-induced activation of ERK and JNK MAPKs (TLR4 [2]; peritoneal macrophages (FIG. 14B)) | Inhibition of TLR4 (overall) (TLR4 [3]) | Effective conc. (TLR4 [4]) [µM] | LPS-induced STAT1-Y701 phosphorylation (TLR4 [5]) | LPS-induced (TLR4-mediated) cytokine mRNA expression (TLR4 [1]; 5 or 20 μM peptide 30 min before LPS, 1 or 5 h) | LPS-induced p38, ERK, and JNK MAPK activation (TLR4 [2]; lysates 30 min after LPS) | LPS-induced cytokine secretion (TLR4 [6])
1 | RQIKIWFQNRRMKWKKLHYRDFIPGVAIAA [4R4/4BB] | potently inhibit | potently inhibit | quite potent inhibitor | 20 | – | – | – | –
2 | RQIKIWFQNRRMKWKKCEEFQVPGRGELH [TF4] | – | – | – | 20 | inhibit | inhibit | inhibit | inhibit
